Measured values: article PMC12624316, “Studies of α′,β′‐Epoxyketone Synthesis by Small‐Molecule Flavins and Flavoenzymes” (Angewandte Chemie (International Ed. in English), 2025)

Molecular target: T1, EpxF (Goodfellowiella coeruleoviolacea, UniProt V5RNC8)
T1 construct: expressed in Escherichia coli; homodimer; residues 253-264 and 336-346 not defined in the density
T1 sequence (V5RNC8 2-563): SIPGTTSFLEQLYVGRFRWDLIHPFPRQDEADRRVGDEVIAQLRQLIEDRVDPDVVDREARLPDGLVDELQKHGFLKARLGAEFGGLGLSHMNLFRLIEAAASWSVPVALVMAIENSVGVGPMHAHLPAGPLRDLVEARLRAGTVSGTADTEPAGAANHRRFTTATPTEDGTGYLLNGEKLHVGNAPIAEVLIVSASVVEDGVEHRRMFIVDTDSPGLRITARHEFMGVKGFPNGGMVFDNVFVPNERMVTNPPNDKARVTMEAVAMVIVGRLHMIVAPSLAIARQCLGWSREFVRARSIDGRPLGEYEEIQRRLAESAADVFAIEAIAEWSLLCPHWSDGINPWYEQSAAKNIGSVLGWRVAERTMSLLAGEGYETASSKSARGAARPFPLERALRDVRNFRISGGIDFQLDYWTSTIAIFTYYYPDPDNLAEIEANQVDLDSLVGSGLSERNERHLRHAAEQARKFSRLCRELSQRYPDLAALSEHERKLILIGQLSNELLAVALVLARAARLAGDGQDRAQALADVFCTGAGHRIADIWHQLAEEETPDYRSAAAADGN
Assay: X-ray crystal structure, […] Å
Type: binding
Details: FAD bound in both subunits of the homodimer, adenine anchored in the dimer interface

Cc1cc2nc3c(=O)[nH]c(=O)nc-3n(C[C@H](O)[C@H](O)[C@H](O)COP(=O)(O)OP(=O)(O)OC[C@H]3O[C@@H](n4cnc5c(N)ncnc54)[C@H](O)[C@@H]3O)c2cc1C [FAD]
X-ray crystal structure, 2.4 Å: electron density map depicts FAD bound at two distinct catalytic centers
